{"source": "paper PMC3470872", "about": "(Biochemical pharmacology, 2012)", "key": {"[1]": {"target": "T1, CES1 (Homo sapiens, UniProt P23141)", "T1 sequence (P23141 18-567)": "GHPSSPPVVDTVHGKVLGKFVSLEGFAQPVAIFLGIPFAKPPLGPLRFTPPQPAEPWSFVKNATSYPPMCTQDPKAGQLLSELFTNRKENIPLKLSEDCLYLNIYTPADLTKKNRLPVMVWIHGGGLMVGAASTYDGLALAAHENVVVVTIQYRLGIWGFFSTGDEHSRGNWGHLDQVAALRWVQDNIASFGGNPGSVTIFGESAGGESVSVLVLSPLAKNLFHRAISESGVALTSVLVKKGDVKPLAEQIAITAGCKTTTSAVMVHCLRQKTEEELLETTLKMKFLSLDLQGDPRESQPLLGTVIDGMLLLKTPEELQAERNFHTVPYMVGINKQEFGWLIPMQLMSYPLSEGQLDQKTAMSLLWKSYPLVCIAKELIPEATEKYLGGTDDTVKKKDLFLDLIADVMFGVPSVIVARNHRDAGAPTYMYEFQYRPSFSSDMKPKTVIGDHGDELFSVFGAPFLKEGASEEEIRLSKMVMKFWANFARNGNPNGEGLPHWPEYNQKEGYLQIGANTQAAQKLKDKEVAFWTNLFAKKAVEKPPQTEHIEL", "assay": "Esterase activity of HepG2 cell lysate in presence of S-3030", "type": "biochemical"}, "[2]": {"target": "T1, CES1", "assay": "Inactivation kinetics of recombinant CES1, pNPV hydrolysis progress curves", "type": "biochemical", "conditions": "comparison with oxon values of ref 24"}, "[3]": {"test_system": "FAAH", "conditions": "rat brain membranes; cited from earlier work"}, "[4]": {"test_system": "HepG2 cells", "assay": "Inhibition and recovery of esterase activity in intact HepG2 cells", "type": "cell-based"}, "[5]": {"target": "T1, CES1", "type": "biochemical"}, "[6]": {"target": "rat ortholog of CES1", "conditions": "cited from earlier work"}, "[7]": {"target": "T2, recombinant human CES2 (Homo sapiens, UniProt O00748)", "T2 sequence (O00748 27-559)": "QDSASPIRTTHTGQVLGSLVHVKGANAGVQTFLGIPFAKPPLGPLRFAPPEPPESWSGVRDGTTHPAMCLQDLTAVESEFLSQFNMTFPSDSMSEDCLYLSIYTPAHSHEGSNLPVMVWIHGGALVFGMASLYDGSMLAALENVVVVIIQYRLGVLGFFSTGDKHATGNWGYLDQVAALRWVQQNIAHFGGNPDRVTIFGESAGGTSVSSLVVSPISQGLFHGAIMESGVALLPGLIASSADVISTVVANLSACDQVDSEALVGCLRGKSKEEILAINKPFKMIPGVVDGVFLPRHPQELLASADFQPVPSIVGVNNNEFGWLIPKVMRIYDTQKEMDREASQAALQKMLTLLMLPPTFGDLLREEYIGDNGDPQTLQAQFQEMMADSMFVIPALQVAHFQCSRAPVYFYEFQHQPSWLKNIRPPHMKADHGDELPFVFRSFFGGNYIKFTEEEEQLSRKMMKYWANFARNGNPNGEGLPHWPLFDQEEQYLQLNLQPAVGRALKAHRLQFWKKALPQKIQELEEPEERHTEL", "assay": "Inactivation kinetics of recombinant CES2, pNPV hydrolysis progress curves", "type": "biochemical", "conditions": "CES1 and MAGL versus CES2"}, "[8]": {"test_system": "MAGL", "conditions": "mouse brain membrane proteome; cited from earlier work"}}, "note": "Several values for one entry are separate records, joined by “and”; a condition that tells them apart may be missing. Identical values can stand only once."}
{"compound": "O=C1C(=O)c2sccc2-c2ccsc21", "note": "[S-3030, Thieno[3,2-e][1]benzothiophene-4,5-dione]", "values": [{"measurement": "esterase activity sensitive to S-3030-mediated inhibition", "setting": "[1]; activity recovered by 48 hr following URB597 treatment (data not shown)", "result": 74, "unit": "%"}, {"measurement": "share of esterase activity accounted for by CES1 (S-3030 sensitive)", "setting": "[1]; untreated HepG2 cell lysate, 10 μM S-3030, pNPV substrate", "result": "71.5±2.1", "unit": "%"}]}
{"compound": "chlorpyrifos oxon", "values": [{"measurement": "more reactive toward CES1 than JZL184", "setting": "[2]", "result": 500, "unit": "x"}]}
{"compound": "NC(=O)c1cccc(-c2cccc(OC(=O)NC3CCCCC3)c2)c1", "note": "[URB597]", "values": [{"measurement": "IC50", "setting": "[3]", "result": 4.6, "unit": "nM"}, {"measurement": "esterase activity, % of the control activity", "setting": "[4]; 10 μM, 30 min treatment, recovery over 48 hr", "result": 50, "unit": "%"}, {"measurement": "inhibition at 10 µM", "setting": "[4]; Homo sapiens, HepG2, 0.5 h, read-out: inhibition of esterase activity", "result": "≥ 90", "unit": "%"}, {"measurement": "t1/2 (half life of reactivation)", "setting": "[5]", "result": "11 h and 11 ± 4^a h"}]}
{"compound": "CNC(=O)Oc1cccc2ccccc12", "note": "[carbaryl]", "values": [{"measurement": "ki (bimolecular rate constant)", "setting": "[6]", "result": 856, "unit": "M⁻¹ s⁻¹"}]}
{"compound": "O=C(Oc1ccc([N+](=O)[O-])cc1)N1CCC(C(O)(c2ccc3c(c2)OCO3)c2ccc3c(c2)OCO3)CC1", "note": "[JZL184]", "values": [{"measurement": "bimolecular rate constants for CES1 and MAGL greater than for CES2", "setting": "[7]", "result": "17-38 fold"}, {"measurement": "esterase activity remained depressed", "setting": "[4]; 10 μM, 30 min treatment, over 48 hr after treatment", "result": "~ 90%"}, {"measurement": "inhibition of esterase activity", "setting": "[4]; 10 μM, 30 min treatment, time 0, pNPV substrate", "result": "≥ 90", "unit": "%"}, {"measurement": "reactivation rate slower than CES1 inhibited by URB597", "setting": "[5]", "result": 4.5, "unit": "x"}, {"measurement": "t1/2 (half life of reactivation)", "setting": "[5]", "result": "49 ± 15 h and 49 h and 49 ± 15^b h"}, {"measurement": "IC50", "setting": "[8]", "result": "[…]"}]}
